Laboratory results taken from ChEMBL document CHEMBL3612065, “Development of N-hydroxybenzamide derivatives with indole-containing cap group as histone deacetylases inhibitors” (Bioorg Med Chem, 2015).

What was measured:
[1] = Inhibition of Class 1 histone deacetylase isolated from human HeLa cell nuclear extracts using Boc-Lys (acetyl)-AMC as substrate preincubated for 10 mins followed by substrate addition measured after 30 mins by fluorescence assay; type: cell-based
[2] = tested on: HeLa; assay: Potency index, ratio of SAHA IC50 to compound IC50 for Class 1 histone deacetylase isolated from human HeLa cell nuclear extracts; type: cell-based
[3] = tested on: HEL; assay: Cytotoxicity against human HEL cells assessed as growth inhibition after 48 hrs by MTT assay; type: functional, cell-based
[4] = tested on: K562; assay: Cytotoxicity against human K562 cells assessed as growth inhibition after 48 hrs by MTT assay; type: functional, cell-based; conditions: K562, 48 h
[5] = tested on: U-937; assay: Cytotoxicity against human U937 cells assessed as growth inhibition after 48 hrs by MTT assay; type: functional, cell-based; conditions: U-937, 48 h
[6] = Cytotoxicity against human U266 cells assessed as growth inhibition after 48 hrs by MTT assay; type: functional, cell-based; conditions: U-266, 48 h
[7] = tested on: HCT-116; assay: Cytotoxicity against human HCT116 cells assessed as growth inhibition after 48 hrs by MTT assay; type: functional, cell-based; conditions: HCT-116, 48 h
[8] = tested on: PC-3; assay: Cytotoxicity against human PC3 cells assessed as growth inhibition after 48 hrs by MTT assay; type: functional, cell-based; conditions: PC-3, 48 h
[9] = tested on: PC-3; assay: Inhibition of Class 1 histone deacetylase in human PC3 cells using Boc-Lys (acetyl)-AMC as substrate preincubated for 3 hrs followed by substrate addition measured after 3 hrs by fluorescence assay; type: cell-based
[10] = tested on: HeLa; assay: Ratio of IC50 for Class 1 histone deacetylase in human PC3 cells to IC50 for Class 1 histone deacetylase isolated from human HeLa cell nuclear extracts
[11] = tested on: PC-3; assay: Inhibition of Class 2a histone deacetylase in human PC3 cells using Boc-Lys (triflouroacetyl)-AMC as substrate preincubated for 3 hrs followed by substrate addition measured after 3 hrs by fluorescence assay; type: cell-based
[12] = tested on: PC-3; assay: Selectivity ratio of IC50 for Class 2a histone deacetylase in human PC3 to IC50 for Class 1 histone deacetylase in human PC3 cells; type: cell-based

Row | Structure (SMILES) | IC50 [1] [µM] | further results
1 | CCS(=O)(=O)N[C@@H](Cc1c[nH]c2ccccc12)C(=O)Nc1ccc(C(=O)NO)cc1 | 1.09 | 
2 | COc1cc(CCC(=O)Nc2ccc(C(=O)NO)cc2)ccc1OCc1cccs1 | 0.192 | 
3 | O=C(Cc1ccccc1)N[C@@H](Cc1c[nH]c2ccccc12)C(=O)Nc1ccc(C(=O)NO)cc1 | 0.0475 | 
4 | CN(C)c1ccc(C(=O)N[C@@H](Cc2c[nH]c3ccccc23)C(=O)Nc2ccc(C(=O)NO)cc2)cc1 | 0.0047 | 
5 | O=C(NO)c1ccc(NC(=O)[C@H](Cc2c[nH]c3ccccc23)NC(=O)c2ccc(Cl)cc2Cl)cc1 | 0.0233 | 
6 | CCCC(CCC)C(=O)N[C@@H](Cc1c[nH]c2ccccc12)C(=O)Nc1ccc(C(=O)NO)cc1 | 0.211 | 
7 | O=C(NO)c1ccc(NC(=O)[C@H](Cc2c[nH]c3ccccc23)NC(=O)c2ccncc2)cc1 | 0.1 | 
8 | O=C(NO)c1ccc(NC(=O)[C@H](Cc2c[nH]c3ccccc23)NC(=O)c2ccc(Cl)cc2)cc1 | 0.0015 | Ratio IC50 [2]: 100; IC50 [3]: 1.97 µM; IC50 [4]: 1.67 µM; IC50 [5]: 1.09 µM; IC50 [6]: 1.01 µM; IC50 [7]: 1.45 µM; IC50 [8]: 0.74 µM; IC50 [9]: 0.0332 µM; Ratio IC50 [10]: 22; IC50 [11]: 0.0601 µM; Ratio IC50 [12]: 2
9 | O=C(NO)c1ccc(NC(=O)[C@H](Cc2c[nH]c3ccccc23)NC(=O)c2ccc(F)cc2)cc1 | 0.0024 | 
10 | O=C(CCCc1ccccc1)N[C@@H](Cc1c[nH]c2ccccc12)C(=O)Nc1ccc(C(=O)NO)cc1 | 0.0987 | 
11 | CC(C)(C)OC(=O)N[C@@H](Cc1c[nH]c2ccccc12)C(=O)Nc1ccc(C(=O)NO)cc1 | 0.28 | 
12 | CC(=O)N[C@@H](Cc1c[nH]c2ccccc12)C(=O)Nc1ccc(C(=O)NO)cc1 | 0.425 | 
13 | CC(C)C(=O)N[C@@H](Cc1c[nH]c2ccccc12)C(=O)Nc1ccc(C(=O)NO)cc1 | 0.526 | 
14 | CCC(CC)C(=O)N[C@@H](Cc1c[nH]c2ccccc12)C(=O)Nc1ccc(C(=O)NO)cc1 | 0.333 | 
15 | CC(C)=CC(=O)N[C@@H](Cc1c[nH]c2ccccc12)C(=O)Nc1ccc(C(=O)NO)cc1 | 0.139 | 
16 | O=C(NO)c1ccc(NC(=O)[C@H](Cc2c[nH]c3ccccc23)NC(=O)c2ccccc2)cc1 | 0.0238 | 
17 | Cc1ccc(C(=O)N[C@@H](Cc2c[nH]c3ccccc23)C(=O)Nc2ccc(C(=O)NO)cc2)cc1 | 0.013 | 
18 | O=C(NO)c1ccc(NC(=O)[C@H](Cc2c[nH]c3ccccc23)NC(=O)c2ccco2)cc1 | 0.031 | IC50 [3]: 3.36 µM; IC50 [4]: 4.56 µM; IC50 [5]: 3.43 µM; IC50 [6]: 3.76 µM; IC50 [7]: 2.77 µM; IC50 [8]: 3.34 µM; IC50 [9]: 0.333 µM; Ratio IC50 [10]: 11; IC50 [11]: 0.665 µM; Ratio IC50 [12]: 2
19 | O=C(NO)c1ccc(NC(=O)[C@H](Cc2c[nH]c3ccccc23)NC(=O)c2cc(Cl)cc(Cl)c2)cc1 | 0.0412 | 
20 | O=C(NO)c1ccc(NC(=O)[C@H](Cc2c[nH]c3ccccc23)NC(=O)c2ccc(C(F)(F)F)cc2)cc1 | 0.03 | 
21 | O=C(NO)c1ccc(NC(=O)[C@H](Cc2c[nH]c3ccccc23)NC(=O)c2ccccc2Cl)cc1 | 0.157 | 
22 | O=C(CCc1ccccc1)N[C@@H](Cc1c[nH]c2ccccc12)C(=O)Nc1ccc(C(=O)NO)cc1 | 0.0597 | 
23 | COc1ccc(C(=O)N[C@@H](Cc2c[nH]c3ccccc23)C(=O)Nc2ccc(C(=O)NO)cc2)cc1 | 0.0086 | 
24 | O=C(NO)c1ccc(NC(=O)[C@H](Cc2c[nH]c3ccccc23)NC(=O)c2ccc(Br)cc2)cc1 | 0.0037 | 
25 | O=C(NO)c1ccc(NC(=O)[C@H](Cc2c[nH]c3ccccc23)NC(=O)c2cccc(Cl)c2)cc1 | 0.0431 | 
26 | Cc1ccc(S(=O)(=O)N[C@@H](Cc2c[nH]c3ccccc23)C(=O)Nc2ccc(C(=O)NO)cc2)cc1 | 0.196 | 
27 | CC(C)(C)OC(=O)N[C@H](C(=O)Nc1ccc(C(=O)NO)cc1)c1ccccc1 | 0.123 | 
28 | O=C(NO)c1ccc(NC(=O)[C@H](Cc2c[nH]c3ccccc23)NC(=O)c2ccc3ccccc3c2)cc1 | 0.027 | 
29 | O=C(/C=C/c1ccc(OC[C@H](Cc2c[nH]c3ccccc23)NC(=O)c2ccc(Cl)cc2)cc1)NO | 0.0068 | 
30 | O=C(NO)c1ccc(NC(=O)[C@H](Cc2c[nH]c3ccccc23)NS(=O)(=O)c2ccccc2)cc1 | 0.178 | 
